Four compounds from patent US11058111B2, “Use of multiple charged cationic compounds derived from primary amines or polyamines for microbial fouling control in a water system” (ECOLAB USA INC., priority 2018, dated 2021) can be followed below.

Assay [1] relates to mixture of aerobic populations from more than 30 cooling systems in North America. In words: Bacterial growth inhibition test, similar to the MBEC assay; growth recorded visually or by turbidity at 650 nm. The class given is cell-based. Also on record: key: “−” indicates no detectable growth at the end of test; “+” indicates detectable growth; “+/−” partial growth; “++” more growth. To be noted: 40-48 hours incubation at 32-35° C. The text has this: The microbial and biofilm inhibition test protocols used in this example is similar to the MBEC (Minimum Biofilm Eradication Concentration) assay and American Society for Testing and Materials (ASTM) MBEC-[…]-12 (2011) assay, both of which are commonly used. This test protocol can be used laboratory and field applications. The test protocol can be conducted in a 12-well or 96-well tissue culture plate format. The 12-well plate format is mainly for lab based and detailed screening/studies. The 96-well format is developed mainly for field applications. The test protocol starts with the preparation of the water sample to be tested by mixing the water from different water systems or artificial water with known bacterial populations with limited nutrient (16% of medium, 2% (w/w) casitone, 0.8% (w/w) yeast extracts, 4% (v/v) glycerol, 4 ppm FeCl3) and the solution of the treatment chemical. This step usually generates a series of the treated water samples with different concentrations for the treatment chemical(s) (from about 0.8 ppm to 1,000 ppm). Next, 200 μL of each treated water samples were transferred to a 96 well plate or 12 well plate. Usually, six replicates would be tested for each concentration of the treatment chemical(s) and controls with no treatment chemical and no bacterial were also placed in the plate(s). After the treated samples were properly plated, the plate(s) are placed on a slow rotary shaker in a humidity-controlled environment on at 32-35° C. for 40-48 hours of incubation. After the incubation, the bacterial growth in each well of the plate was recorded either visually or by a microplate turbidity reader at 650 nm to determine the minimum bacterial growth inhibition concentration for a treatment chemical. The bacteria used in this example for microbial and/or biofilm growth inhibition test protocols comprised a mixture of aerobic populations from more than 30 cooling systems in North America. The specific species were not specifically identified. Those species were grown on […] agar.

Assay [2] concerns biofilm of a mixture of aerobic populations from more than 30 cooling systems in North America. In words: Biofilm growth inhibition test, similar to the MBEC assay; INT or crystal violet stain of biofilm on well walls. The note with it: 40-48 hours incubation at 32-35° C. It is filed as cell-based. The arrangement: key: “−” indicates no detectable growth at the end of test; “+” indicates detectable growth; “+/−” partial growth; “++” more growth. The text has this: The microbial and biofilm inhibition test protocols used in this example is similar to the MBEC (Minimum Biofilm Eradication Concentration) assay and American Society for Testing and Materials (ASTM) MBEC-[…]-12 (2011) assay, both of which are commonly used. This test protocol can be used laboratory and field applications. The test protocol can be conducted in a 12-well or 96-well tissue culture plate format. The 12-well plate format is mainly for lab based and detailed screening/studies. The 96-well format is developed mainly for field applications. The test protocol starts with the preparation of the water sample to be tested by mixing the water from different water systems or artificial water with known bacterial populations with limited nutrient (16% of medium, 2% (w/w) casitone, 0.8% (w/w) yeast extracts, 4% (v/v) glycerol, 4 ppm FeCl3) and the solution of the treatment chemical. This step usually generates a series of the treated water samples with different concentrations for the treatment chemical(s) (from about 0.8 ppm to 1,000 ppm). Next, 200 μL of each treated water samples were transferred to a 96 well plate or 12 well plate. Usually, six replicates would be tested for each concentration of the treatment chemical(s) and controls with no treatment chemical and no bacterial were also placed in the plate(s). After the treated samples were properly plated, the plate(s) are placed on a slow rotary shaker in a humidity-controlled environment on at 32-35° C. for 40-48 hours of incubation. After this step, the bacterial cultures in the plate(s) were carefully poured out and 250 ul of dyes (350 ppm 2-(4-Iodophenyl)-3-(4-nitrophenyl)-5-phenyltetrazolium chloride (INT) or 2,000 ppm crystal violent (CV) for biofilm matrix stain) was added to each well for activity stain in biofilms on well walls. After 10-15 minutes, pour out the dye and gently wash the wells with deionized water until no colored water is running of the plate(s). After drying the plate(s), each well was inspected visually for staining and results are recorded. Alternatively, use 300 uL ethanol to extract CV dyes and transfer 200 uL of ethanol to a new plate for microtiter plate recording at 590 nm. […] The bacteria used in this example for microbial and/or biofilm growth inhibition test protocols comprised a mixture of aerobic populations from more than 30 cooling systems in North America. The specific species were not specifically identified. Those species were grown on […] agar.

Consider `CCCCCCCCC=CCCCCCCCCN(CCC(=O)NCCC[N+](C)(C)C)CCC(=O)NCCC[N+](C)(C)C.[Cl-].[Cl-]` [Compound 3, 3,3′-((3,3′-(octadec-9-en-1-ylazanediyl)bis(propanoyl))bis(azanediyl)) bis(N,N,N-trimethylpropan-1-aminium) chloride], for which the Bacterial growth entry in assay [1] (test concentration 0.8 ppm), in assay [1] (test concentration 1.5 ppm), in assay [1] (test concentration 3 ppm), in assay [1] (test concentration 6 ppm), in assay [1] (test concentration 12 ppm) and in assay [1] (test concentration 25 ppm) was “+” throughout. For the same compound, the Bacterial growth result in assay [1] (test concentration 50 ppm) is “+/−”; in assay [1] (test concentration 63 ppm) it was “+/−”; in assay [1] (test concentration 125 ppm) it was “−”; in assay [1] (test concentration 250 ppm), “−”; in assay [1] (test concentration 500 ppm) it was “−”; in assay [1] (test concentration 1000 ppm) it was “−”. The Biofilm growth entry in assay [2] (test concentration 0.8 ppm) is listed as “+”; in assay [2] (test concentration 1.5 ppm), “+”; in assay [2] (test concentration 3 ppm) it was “+”; in assay [2] (test concentration 6 ppm) it was “+”; in assay [2] (test concentration 12 ppm) it was “+/−”; in assay [2] (test concentration 25 ppm), “+/−”. In addition, the Biofilm growth entry is “+/−” in assay [2] (test concentration 50 ppm); “−” in assay [2] (test concentration 63 ppm); “−” in assay [2] (test concentration 125 ppm); “−” in assay [2] (test concentration 250 ppm); “−” in assay [2] (test concentration 500 ppm); “_” in assay [2] (test concentration 1000 ppm).

Take `CCCCCCCCCCCCCCCCN(CCC(=O)NCCC[N+](C)(C)C)CCC(=O)NCCC[N+](C)(C)C.[Cl-].[Cl-]` [Compound 2, 3,3′-((3,3′-(hexadecylazanediyl)bis(propanoyl))bis(azanediyl))bis(N,N,N-trimethylpropan-1-aminium) chloride]: the Bacterial growth result in assay [1] (test concentration 0.8 ppm), in assay [1] (test concentration 1.5 ppm), in assay [1] (test concentration 3 ppm), in assay [1] (test concentration 6 ppm), in assay [1] (test concentration 12 ppm) and in assay [1] (test concentration 25 ppm) was “+” in each case. In addition, the Bacterial growth result in assay [1] (test concentration 50 ppm) is reported as “+/−”; in assay [1] (test concentration 63 ppm) it was “−”; in assay [1] (test concentration 125 ppm), “−”; in assay [1] (test concentration 250 ppm), “−”; in assay [1] (test concentration 500 ppm) it was “−”; in assay [1] (test concentration 1000 ppm) it was “−”. The Biofilm growth result in assay [2] (test concentration 0.8 ppm) is recorded as “+”; in assay [2] (test concentration 1.5 ppm), “+”; in assay [2] (test concentration 3 ppm) it was “+”; in assay [2] (test concentration 6 ppm) it was “+”; in assay [2] (test concentration 12 ppm) it was “+”; in assay [2] (test concentration 25 ppm) it was “+/−”. For the same compound, the Biofilm growth entry in assay [2] (test concentration 50 ppm), in assay [2] (test concentration 63 ppm), in assay [2] (test concentration 125 ppm), in assay [2] (test concentration 250 ppm), in assay [2] (test concentration 500 ppm) and in assay [2] (test concentration 1000 ppm) was “−” each time.

In the case of “3,3′-((3,3′-(octylazanediyl)bis(propanoyl))bis(azanediyl))bis(N,N,N-trimethylpropan-1-aminium) chloride [Compound 4]”, the Bacterial growth entry in assay [1] (test concentration 0.8 ppm) is “+”; in assay [1] (test concentration 1.5 ppm), “+”; in assay [1] (test concentration 3 ppm) it was “+”; in assay [1] (test concentration 6 ppm) it was “++”; in assay [1] (test concentration 12 ppm), “+/−”; in assay [1] (test concentration 25 ppm), “−”. Also, the Bacterial growth entry in assay [1] (test concentration 50 ppm), in assay [1] (test concentration 63 ppm), in assay [1] (test concentration 125 ppm), in assay [1] (test concentration 250 ppm), in assay [1] (test concentration 500 ppm) and in assay [1] (test concentration 1000 ppm) was “−” throughout. Besides, the Biofilm growth entry in assay [2] (test concentration 0.8 ppm) is “+”; in assay [2] (test concentration 1.5 ppm), “+”; in assay [2] (test concentration 3 ppm), “+/−”; in assay [2] (test concentration 6 ppm) it was “−”; in assay [2] (test concentration 12 ppm), “−”; in assay [2] (test concentration 25 ppm), “−”. In addition, the Biofilm growth result in assay [2] (test concentration 50 ppm), in assay [2] (test concentration 63 ppm), in assay [2] (test concentration 125 ppm), in assay [2] (test concentration 250 ppm), in assay [2] (test concentration 500 ppm) and in assay [2] (test concentration 1000 ppm) was “−” each time.

As to `CCCCCCCCCCCCN(CCC(=O)NCCC[N+](C)(C)C)CCC(=O)NCCC[N+](C)(C)C.[Cl-].[Cl-]` [Compound 1, 3,3′-((3,3′-(dodecylazanediyl)bis(propanoyl))bis(azanediyl))bis(N,N,N-trimethylpropan-1-aminium) chloride], the Bacterial growth entry in assay [1] (test concentration 0.8 ppm), in assay [1] (test concentration 1.5 ppm), in assay [1] (test concentration 3 ppm), in assay [1] (test concentration 6 ppm), in assay [1] (test concentration 12 ppm) and in assay [1] (test concentration 25 ppm) was “+” each time. Also, the Bacterial growth result in assay [1] (test concentration 50 ppm) is on record as “+”; in assay [1] (test concentration 63 ppm), “+”; in assay [1] (test concentration 125 ppm), “+”; in assay [1] (test concentration 250 ppm), “+”; in assay [1] (test concentration 500 ppm), “+”; in assay [1] (test concentration 1000 ppm), “−”. Further, the Biofilm growth entry in assay [2] (test concentration 0.8 ppm), in assay [2] (test concentration 1.5 ppm), in assay [2] (test concentration 3 ppm), in assay [2] (test concentration 6 ppm), in assay [2] (test concentration 12 ppm) and in assay [2] (test concentration 25 ppm) was “+” each time. Also, the Biofilm growth result in assay [2] (test concentration 50 ppm) is “+”; in assay [2] (test concentration 63 ppm) it was “+”; in assay [2] (test concentration 125 ppm), “+”; in assay [2] (test concentration 250 ppm), “+/−”; in assay [2] (test concentration 500 ppm) it was “−”; in assay [2] (test concentration 1000 ppm) it was “−”.
